# Laboratory results reported in ChEMBL document CHEMBL6109061, “Discovery of an Ultralong-acting Nondepolarizing Neuromuscular Blocker That Displays Short Onset Time and On-Demand Rapid Reversal by a Biocompatible Antagonist” (J Med Chem, 2025).
# Calls of active or inactive are those of the source. The rule behind the calls is not given here.
# Key:
# Rattus norvegicus [1] = assay: Neuromuscular block activity in propofol-induced anesthetized iv dosed Sprague-Dawley rat model assessed as minimum dose for complete neuromuscular block; format: functional; conditions: read-out: MED
# Rattus norvegicus [2] = assay: Neuromuscular block activity in propofol-induced anesthetized Sprague-Dawley rat model assessed as inhibition of twitch by measuring twitch intensity of quadriceps muscle at 0.3 mg/kg, iv administered as bolus dose by TOF watch monitor analysis relative to control; format: functional
# [3] = Solubility of compound in water; format: physicochemical
# Rattus norvegicus [4] = assay: Neuromuscular block activity in propofol-induced anesthetized Sprague-Dawley rat model assessed as inhibition of twitch by measuring twitch intensity of quadriceps muscle at 0.04 mg/kg, iv administered as bolus dose by TOF watch monitor analysis relative to control; format: functional
# Rattus norvegicus [5] = assay: Neuromuscular block activity in propofol-induced anesthetized Sprague-Dawley rat model assessed as onset time required for twitch reduction at 0.04 mg/kg, iv; format: functional
# Rattus norvegicus [6] = assay: Neuromuscular block activity in propofol-induced anesthetized Sprague-Dawley rat model assessed as recovery time at 0.04 mg/kg, iv; format: functional
# Rattus norvegicus [7] = assay: Neuromuscular block activity in propofol-induced anesthetized Sprague-Dawley rat model assessed as reduction in twitch inhibition by measuring twitch intensity of quadriceps muscle at 0.3 mg/kg, iv administered as bolus dose by TOF watch monitor analysis; format: functional, organism-based
# Rattus norvegicus [8] = assay: Neuromuscular block activity in propofol-induced anesthetized Sprague-Dawley rat model assessed as time duration of 0 to 25 percent recovery indices at 0.04 mg/kg, iv; format: functional
# Rattus norvegicus [9] = assay: Neuromuscular block activity in propofol-induced anesthetized Sprague-Dawley rat model assessed as inhibition of twitch by measuring twitch intensity of quadriceps muscle at 0.6 mg/kg, iv administered as bolus dose by TOF watch monitor analysis relative to control; format: functional
# Rattus norvegicus [10] = assay: Neuromuscular block activity in propofol-induced anesthetized Sprague-Dawley rat model assessed as inhibition of twitch by measuring twitch intensity of quadriceps muscle at 5 mg/kg, iv administered as bolus dose by TOF watch monitor analysis relative to control; format: functional
# Rattus norvegicus [11] = assay: Neuromuscular block activity in propofol-induced anesthetized Sprague-Dawley rat model assessed as inhibition of twitch by measuring twitch intensity of quadriceps muscle at 0.5 mg/kg, iv administered as bolus dose by TOF watch monitor analysis relative to control; format: functional
# Rattus norvegicus [12] = species on record: Rattus norvegicus; assay: Recovery of Pan-induced neuromuscular block in Sprague-Dawley rat assessed as […] ratio (TOFr) <= 25% by measuring recovery time; format: functional
SMILES,solubility [3],minimal effective dose (Rattus norvegicus [1]),inhibition in vivo at 0.3 mg/kg (Rattus norvegicus [2]),inhibition in vivo at 0.04 mg/kg (Rattus norvegicus [4]),further results
CCc1n2cc[n+]1Cc1ccc(cc1)Oc1ccc(cc1)C[n+]1ccn(c1CC)CCCCCn1cc[n+](c1CC)Cc1ccc(cc1)Oc1ccc(cc1)C[n+]1ccn(c1CC)CCCCC2.[Cl-].[Cl-].[Cl-].[Cl-],≥ 50 mM,–,–,100%,Time (Rattus norvegicus [5]): 222 s; Time (Rattus norvegicus [6]): 13 min
[Cl-].[Cl-].[Cl-].[Cl-].c1ccc2c(c1)n1c[n+]2Cc2ccc(cc2)Oc2ccc(cc2)C[n+]2cn(c3ccccc32)CCCCCn2c[n+](c3ccccc32)Cc2ccc(cc2)Oc2ccc(cc2)C[n+]2cn(c3ccccc32)CCCCC1,~0.5 mM,–,–,0%,Time (Rattus norvegicus [8]): 27 min
Cc1n2cc[n+]1Cc1ccc(cc1)Oc1ccc(cc1)C[n+]1ccn(c1C)CCCCCCCn1cc[n+](c1C)Cc1ccc(cc1)Oc1ccc(cc1)C[n+]1ccn(c1C)CCCCCCC2.[Cl-].[Cl-].[Cl-].[Cl-],≥ 50 mM,–,–,100%,Time (Rattus norvegicus [5]): 498 s; Time (Rattus norvegicus [6]): 18 min; Time (Rattus norvegicus [8]): 61 min
c1c[n+]2ccc1CCCc1cc[n+](cc1)Cc1ccc(cc1)Oc1ccc(cc1)C[n+]1ccc(cc1)CCCc1cc[n+](cc1)Cc1ccc(cc1)Oc1ccc(cc1)C2,–,–,38%,0%,inhibition in vivo at 0.6 mg/kg (Rattus norvegicus [9]): 100%
Cc1n2cc[n+]1Cc1ccc(cc1)C[n+]1ccn(c1C)CCCn1cc[n+](c1C)Cc1ccc(cc1)C[n+]1ccn(c1C)CCC2,–,–,–,0%,inhibition in vivo at 5 mg/kg (Rattus norvegicus [10]): 100%; inhibition in vivo at 0.5 mg/kg (Rattus norvegicus [11]): 0%
Cc1n2cc[n+]1Cc1ccc(cc1)Oc1ccc(cc1)C[n+]1ccn(c1C)Cn1cc[n+](c1C)Cc1ccc(cc1)Oc1ccc(cc1)C[n+]1ccn(c1C)C2.[Cl-].[Cl-].[Cl-].[Cl-],≥ 50 mM,–,–,63%,–
Cc1n2cc[n+]1Cc1cccc(c1)C[n+]1ccn(c1C)CCCn1cc[n+](c1C)Cc1cccc(c1)C[n+]1ccn(c1C)CCC2,–,–,–,0%,inhibition in vivo at 5 mg/kg (Rattus norvegicus [10]): 100%; inhibition in vivo at 0.5 mg/kg (Rattus norvegicus [11]): 11%
Cc1n2cc[n+]1Cc1ccc(cc1)Oc1ccc(cc1)C[n+]1ccn(c1C)CCCCCn1cc[n+](c1C)Cc1ccc(cc1)Oc1ccc(cc1)C[n+]1ccn(c1C)CCCCC2.[Cl-].[Cl-].[Cl-].[Cl-],≥ 50 mM,–,–,58%,–
Cc1n2cc[n+]1Cc1ccc(cc1)Oc1ccc(cc1)C[n+]1ccn(c1C)CCCCn1cc[n+](c1C)Cc1ccc(cc1)Oc1ccc(cc1)C[n+]1ccn(c1C)CCCC2.[Cl-].[Cl-].[Cl-].[Cl-],≥ 50 mM,–,–,100%,Time (Rattus norvegicus [5]): 102 s; Time (Rattus norvegicus [6]): 16 min; Time (Rattus norvegicus [8]): 47 min

# The next lines start with results.
solubility [3],SMILES,minimal effective dose (Rattus norvegicus [1]),inhibition in vivo at 0.3 mg/kg (Rattus norvegicus [2]),inhibition in vivo at 0.04 mg/kg (Rattus norvegicus [4]),further results
≥ 50 mM,COC(=O)c1cc2cc(c1)Cn1cc[n+](c1)Cc1ccc(cc1)-c1ccc(cc1)C[n+]1ccn(c1)Cc1cc(cc(C(=O)OC)c1)Cn1cc[n+](c1)Cc1ccc(cc1)-c1ccc(cc1)C[n+]1ccn(c1)C2.[Cl-].[Cl-].[Cl-].[Cl-],1.5 mg/kg,5%,–,–
≥ 50 mM,[Cl-].[Cl-].[Cl-].[Cl-].c1cc2cc(c1)Cn1cc[n+](c1)Cc1ccc(cc1)Cc1ccc(cc1)C[n+]1ccn(c1)Cc1cccc(c1)Cn1cc[n+](c1)Cc1ccc(cc1)Cc1ccc(cc1)C[n+]1ccn(c1)C2,2 mg/kg,15%,–,–
≥ 50 mM,O=C(O)c1cc2cc(c1)Cn1cc[n+](c1)Cc1ccc(cc1)Oc1ccc(cc1)C[n+]1ccn(c1)Cc1cc(cc(C(=O)O)c1)Cn1cc[n+](c1)Cc1ccc(cc1)Oc1ccc(cc1)C[n+]1ccn(c1)C2.[Cl-].[Cl-].[Cl-].[Cl-],1 mg/kg,0%,–,Activity (Rattus norvegicus [7]): inactive
≥ 50 mM,COC(=O)c1cc2cc(c1)Cn1cc[n+](c1)Cc1ccc(cc1)Oc1ccc(cc1)C[n+]1ccn(c1)Cc1cc(cc(C(=O)OC)c1)Cn1cc[n+](c1)Cc1ccc(cc1)Oc1ccc(cc1)C[n+]1ccn(c1)C2.[Cl-].[Cl-].[Cl-].[Cl-],0.6 mg/kg,50%,–,–
≥ 50 mM,[Cl-].[Cl-].[Cl-].[Cl-].c1cc2ccc1Cc1ccc(cc1)C[n+]1ccn(c1)Cc1ccc(o1)Cn1cc[n+](c1)Cc1ccc(cc1)Cc1ccc(cc1)C[n+]1ccn(c1)Cc1ccc(o1)Cn1cc[n+](c1)C2,5 mg/kg,0%,–,Activity (Rattus norvegicus [7]): inactive
≥ 50 mM,[Cl-].[Cl-].[Cl-].[Cl-].c1cc2ccc1C[n+]1ccn(c1)CCCCCn1cc[n+](c1)Cc1ccc(cc1)Oc1ccc(cc1)C[n+]1ccn(c1)CCCCCn1cc[n+](c1)Cc1ccc(cc1)O2,–,–,100%,Time (Rattus norvegicus [5]): 138 s; Time (Rattus norvegicus [6]): 31 min; Time (Rattus norvegicus [8]): 41 min
≥ 50 mM,O=C(O)c1cc2cc(c1)Cn1cc[n+](c1)Cc1ccc(cc1)-c1ccc(cc1)C[n+]1ccn(c1)Cc1cc(cc(C(=O)O)c1)Cn1cc[n+](c1)Cc1ccc(cc1)-c1ccc(cc1)C[n+]1ccn(c1)C2.[Cl-].[Cl-].[Cl-].[Cl-],1.2 mg/kg,0%,–,Activity (Rattus norvegicus [7]): inactive
≥ 50 mM,[Cl-].[Cl-].[Cl-].[Cl-].c1cc2cc(c1)Cn1cc[n+](c1)Cc1ccc(cc1)-c1ccc(cc1)C[n+]1ccn(c1)Cc1cccc(c1)Cn1cc[n+](c1)Cc1ccc(cc1)-c1ccc(cc1)C[n+]1ccn(c1)C2,0.6 mg/kg,43%,–,–
≥ 50 mM,[Cl-].[Cl-].[Cl-].[Cl-].c1cc2cc(c1)Cn1cc[n+](c1)Cc1ccc(cc1)Oc1ccc(cc1)C[n+]1ccn(c1)Cc1cccc(c1)Cn1cc[n+](c1)Cc1ccc(cc1)Oc1ccc(cc1)C[n+]1ccn(c1)C2,0.16 mg/kg,100%,–,–
≥ 50 mM,Cc1n2cc[n+]1Cc1ccc(cc1)Oc1ccc(cc1)C[n+]1ccn(c1C)Cc1cccc(c1)Cn1cc[n+](c1C)Cc1ccc(cc1)Oc1ccc(cc1)C[n+]1ccn(c1C)Cc1cccc(c1)C2.[Cl-].[Cl-].[Cl-].[Cl-],0.1 mg/kg,100%,54%,–
≥ 50 mM,[Cl-].[Cl-].[Cl-].[Cl-].c1cc2ccc1Cn1cc[n+](c1)Cc1ccc(cc1)-c1ccc(cc1)C[n+]1ccn(c1)Cc1ccc(cc1)Cn1cc[n+](c1)Cc1ccc(cc1)-c1ccc(cc1)C[n+]1ccn(c1)C2,1.2 mg/kg,3%,–,Time (Rattus norvegicus [12]): 36 min
≥ 50 mM,[Cl-].[Cl-].[Cl-].[Cl-].c1cc2ccc1Cn1cc[n+](c1)Cc1ccc(cc1)Oc1ccc(cc1)C[n+]1ccn(c1)Cc1ccc(cc1)Cn1cc[n+](c1)Cc1ccc(cc1)Oc1ccc(cc1)C[n+]1ccn(c1)C2,0.9 mg/kg,2%,–,Time (Rattus norvegicus [12]): 30 min
≥ 50 mM,[Cl-].[Cl-].[Cl-].[Cl-].c1cc2ccc1Cc1ccc(cc1)C[n+]1ccn(c1)Cc1ccc(cc1)Cn1cc[n+](c1)Cc1ccc(cc1)Cc1ccc(cc1)C[n+]1ccn(c1)Cc1ccc(cc1)Cn1cc[n+](c1)C2,1.8 mg/kg,17%,–,Time (Rattus norvegicus [12]): 32 min
